The values that follow are results of earlier work, collected in patent US20110212461A1, “PREDICTION OF CARDIOTOXICITY” (priority 2010, published 2011).

The conditions of this data set: assessment positive or negative; marketed/external kinase inhibitors; from public literature and internal data.
Regarding `COc1cc2ncnc(Nc3ccc(F)c(Cl)c3)c2cc1OCCCN1CCOCC1` [Iressa], the Cardiotoxicity entry is recorded as “Negative”.
For the compound `CNC(=O)c1cc(Oc2ccc(NC(=O)Nc3ccc(Cl)c(C(F)(F)F)c3)cc2)ccn1` [Nexavar, sorafenib], the Cardiotoxicity result was “Positive”.
On to `Cc1cn(-c2cc(NC(=O)c3ccc(C)c(Nc4nccc(-c5cccnc5)n4)c3)cc(C(F)(F)F)c2)cn1` [Nilotinib], for which the Cardiotoxicity result was “Positive”.
Take `Cc1nc(Nc2ncc(C(=O)Nc3c(C)cccc3Cl)s2)cc(N2CCN(CCO)CC2)n1` [Sprycel, dasatinib]: the Cardiotoxicity entry is on record as “Positive”.
On to `CCN(CC)CCNC(=O)c1c(C)[nH]c(/C=C2\C(=O)Nc3ccc(F)cc32)c1C` [Sutent, sunitinib], for which the Cardiotoxicity entry is reported as “Positive”.
Consider `C#Cc1cccc(Nc2ncnc3cc(OCCOC)c(OCCOC)cc23)c1` [Tarceva], for which the Cardiotoxicity entry is given as “Negative”.
Take `CS(=O)(=O)CCNCc1ccc(-c2ccc3ncnc(Nc4ccc(OCc5cccc(F)c5)c(Cl)c4)c3c2)o1` [Tykerb]: the Cardiotoxicity result is “Negative”.
Turning to `COc1cc2c(Nc3ccc(Br)cc3F)ncnc2cc1OCC1CCN(C)CC1` [Zactima], the Cardiotoxicity result is “Positive”.
